System: erythrocytes
Test: In vitro spiking experiment: sultiame exchanges between plasma and erythrocytes
Type: in vitro ADME, human
Protocol: A spiking experiment was performed to better characterize sultiame exchanges between plasma and erythrocytes. The influx into cells was investigated through spiking fresh human whole blood on EDTA at different target concentrations (1, 5, 10, 20, 40, and 80 mg/L) and different temperatures (4, 21, and 37°C), followed by sampling at 0, 2, 4, 6, 8, 10, 15, 30, 60, 120, and 180 min. The efflux was investigated through incubating whole blood for 1 h at 2 concentrations (10 and 40 mg/L) at 37°C, centrifugating and briefly washing the erythrocytes with NaCl 0.9%, and letting them equilibrate with fresh plasma while drawing samples at 0, 2, 4, 6, 8, 10, 15, 30, 60, 120, 180 minutes, and 24 hours.
In addition, competition studies were performed with two other antiepileptic agents known for their affinity for CA (zonisamide and topiramate), added at equimolar concentration to 20 mg/L of sultiame. Similar ranges of inhibition constants for CA II were reported in the literature for these three substances.13 Samples (1 mL) were drawn before and at 2, 4, 6, 8, 10, 15, 20, 30, 45, 60, and 120 min after addition of the competitor. Sultiame, zonisamide, and topiramate concentrations were then analyzed. All samples were centrifuged at 18 620 g for 1 minutes at 4°C. Plasma, erythrocyte, and urine fractions were stored separately at − 80°C prior to analysis for a maximum of 9 months. For analysis, plasma and hemolyzed erythrocytes samples were subjected to protein precipitation with MeOH containing the internal‐standard sultiame D4 and quantified with the previously described HPLC‐MS/MS method, using matrix‐matched calibration and quality controls. The sultiame concentrations determined in erythrocytes were corrected for the 10% interstitial plasma remnant in the erythrocyte fraction after centrifugation.14

[1] = 37 °C, deduced using Arrhenius' law

NS(=O)(=O)c1ccc(N2CCCCS2(=O)=O)cc1 [Sultiame]
koff [1]: 0.0486 s⁻¹
kon [1]: 560600 M⁻¹ s⁻¹
erythrocyte/plasma ratio (concentrations of 10 mg/L or less): 800
erythrocyte/plasma ratio (concentrations of 20 mg/L and above): less than 30
efflux from incubated erythrocytes into blank plasma (erythrocytes incubated 1 h at 10 and 40 mg/L, 37°C, data not shown): only minute amounts
in vitro binding capacity (in vitro evaluation): exceeding 20 mg per liter of whole blood
whole blood concentration at which saturation of erythrocytes occurs (in vitro spiking): ~20 mg/L
time to steady state of erythrocyte/plasma ratio (spiked fresh human whole blood): about 10 minutes

Source: PMC6986439, “Sultiame pharmacokinetic profile in plasma and erythrocytes after single oral doses: A pilot study in healthy volunteers” (Pharmacology Research & Perspectives, 2020)
